# Measurements as given in the supplement of paper PMC10307832.
# What was measured:
# Test in all cases: relative viability (nuclei count vs DMSO), 5 days (fraction); higher = more cells survive
# Trametinib + Crizotinib = compound: CC(=O)Nc1cccc(-n2c(=O)n(C3CC3)c(=O)c3c(Nc4ccc(I)cc4F)n(C)c(=O)c(C)c32)c1 [Trametinib] + C[C@@H](Oc1cc(-c2cnn(C3CCNCC3)c2)cnc1N)c1c(Cl)ccc(F)c1Cl [Crizotinib] (partner 1 µM)
# Outline: (§1)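 For relative viability, nuclei counts in treated wells were divided by those in vehicle wells. Lung cancer cell lines had been pin-tool dosed in 1536-well plates the day after seeding and cultured for 5 days, then fixed and stained in one step (final 0.05% Triton X-100, 1% formaldehyde, 1 ug/ml Hoechst) and imaged at 4×. Doses were one drug alone or a fixed anchor-drug dose plus five library-drug doses (not always all listed) in √10 steps, and values are duplicate-plate medians.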
# Trametinib + Lapatinib = compound: CC(=O)Nc1cccc(-n2c(=O)n(C3CC3)c(=O)c3c(Nc4ccc(I)cc4F)n(C)c(=O)c(C)c32)c1 [Trametinib] + CS(=O)(=O)CCNCc1ccc(-c2ccc3ncnc(Nc4ccc(OCc5cccc(F)c5)c(Cl)c4)c3c2)o1 [Lapatinib] (partner 2 µM)
# Outline: as §1
# [1] = compound: CN1C=C(C2=CC=CC=C21)/C=C\3/C4=C(C=CC=N4)NC3=O + CCNC(=O)c1noc(-c2cc(C(C)C)c(O)cc2O)c1-c1ccc(CN2CCOCC2)cc1 [Luminespib] (partner 0.01 µM)
# Outline: as §1
# Trametinib + Decitabine = compound: CC(=O)Nc1cccc(-n2c(=O)n(C3CC3)c(=O)c3c(Nc4ccc(I)cc4F)n(C)c(=O)c(C)c32)c1 [Trametinib] + Nc1ncn([C@H]2C[C@H](O)[C@@H](CO)O2)c(=O)n1 [Decitabine] (partner 2 µM)
# Outline: as §1
cell line,measurement,setting,value
UMC-11,relative viability,Trametinib + Crizotinib; first compound 0.0025 µM,0.634
same,relative viability,Trametinib + Crizotinib; first compound 0.007906 µM,0.591
same,relative viability,Trametinib + Crizotinib; first compound 0.025 µM,0.679
same,relative viability,Trametinib + Crizotinib; first compound 0.07906 µM,0.647
same,relative viability,Trametinib + Crizotinib; first compound 0.25 µM,0.566
same,relative viability,Trametinib + Lapatinib; first compound 0.0025 µM,0.951
same,relative viability,Trametinib + Lapatinib; first compound 0.007906 µM,0.973
same,relative viability,Trametinib + Lapatinib; first compound 0.025 µM,0.348
same,relative viability,Trametinib + Lapatinib; first compound 0.07906 µM,0.963
same,relative viability,Trametinib + Lapatinib; first compound 0.25 µM,0.758
same,relative viability,[1]; first compound 0.02 µM,0.764
same,relative viability,[1]; first compound 0.06325 µM,0.943
same,relative viability,[1]; first compound 0.2 µM,1
same,relative viability,[1]; first compound 0.6325 µM,1.25
same,relative viability,[1]; first compound 2 µM,1.18
same,relative viability,Trametinib + Decitabine; first compound 0.0025 µM,0.548
same,relative viability,Trametinib + Decitabine; first compound 0.007906 µM,0.674
same,relative viability,Trametinib + Decitabine; first compound 0.25 µM,0.471
